Values quoted from earlier work in patent US20140113883A1, “Therapeutic micro nutrient composition for lipolysis and sclerosis” (priority 2008, published 2014).

Test system: red blood cells

In the case of Lysolecithin, the hemolytic properties is listed as “strong hemolytic properties”.
